Patent US5527815A, “Carboxymethylidenecycloheptimidazole derivatives, method of manufacturing the same and therapeutic agents containing these compounds” (Kotobuki Seiyaku Co., Ltd., priority 1993, dated 1996)

How the values were obtained:
[1] = test system: pressor responses to AII; assay: Inhibition of AII induced blood pressure increase in rats; format: in vivo; conditions: Rattus norvegicus, po, test compound 0.3 mg/kg orally, AII 30 ng/kg i.v., pressor responses measured at set times
Description: [Inhibition of All induced Blood Pressure Increase]
Carotid artery and left femoral vein in rats were cannulated. Next day, the carotid catheter was connected to a pressure transducer for monitoring arterial blood pressure. After the measurement of AII (30 ng/kg, i.v.) pressor responses, test compounds (0.3 mg/kg) were administered orally.
Thereafter, the pressor responses to AII at set times were measured and the inhibition percent was calculated according to the comparison of the pressor responses.

[2] = target: T1, Angiotensin II receptor (Oryctolagus cuniculus, UniProt P34976); assay: AII receptor antagonistic activity: inhibition of angiotensin II induced contraction of isolated rabbit thoracic aorta; format: cell-based; conditions: isolated rabbit thoracic aorta contracted by angiotensin II; Van Rossum method; values shown in parenthesis
T1 construct: Rabbit thoracic aorta is isolated, contracted by angiotensin II; from tissue; host or cells: rabbit thoracic aorta
T1 sequence (P34976 1-359): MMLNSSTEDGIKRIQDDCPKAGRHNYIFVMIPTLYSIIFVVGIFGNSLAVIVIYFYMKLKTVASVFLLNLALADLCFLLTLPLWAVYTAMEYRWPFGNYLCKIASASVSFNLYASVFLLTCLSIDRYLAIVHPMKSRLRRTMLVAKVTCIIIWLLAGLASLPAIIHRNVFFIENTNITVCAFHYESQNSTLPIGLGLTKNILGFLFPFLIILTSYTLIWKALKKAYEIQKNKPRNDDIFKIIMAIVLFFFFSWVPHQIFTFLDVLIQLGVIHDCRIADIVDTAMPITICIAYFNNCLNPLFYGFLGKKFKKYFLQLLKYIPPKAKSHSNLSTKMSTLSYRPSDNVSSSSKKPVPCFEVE
Description: [AII receptor antagonistic activity]
Angiotensin II receptor activity experiments are carried out according to P. C. Wong et al. (Hypertension 15, 823 (1990)).
Rabbit thoracic aorta is isolated, contracted by angiotensin II. The inhibition of contraction by the compound of formula (1) is expressed as pA2 from dose-response curve (Schild, Brit. J. Pharmacol. 14, 48 (1959)) or expressed as pD2 ' according to the method of J. M. Van Rossum (Arch. Intern. Pharmacodyn., 143, 229 (1963)).

pD2' [2]: 8.18
Compound: CCCc1nc2c(n1Cc1ccc(-c3ccccc3-c3nnn[nH]3)cc1)/C(=C/C(=O)OC(C)OC(=O)OC(C)C)CCCC2 (centres unmarked) [Compound 29, 2-Propyl-8-(1-isopropoxycarbonyloxy)ethoxycarbonylmethylidene-1-[(2'-(1H-tetrazole-5-yl)biphenyl-4-yl)methyl]-4,5,6,7-tetrahydro-cycloheptimidazole]
inhibition in vivo at 0.3 mg/kg [1]: ≥ 70%
